According to paper PMC5355235, “FLT3 activating mutations display differential sensitivity to multiple tyrosine kinase inhibitors” (Oncotarget, 2017):
pIC50: −log10 of the molar value. Where two headings read alike, the source gives them in different places.

Tests used:
BaF3/ITD cells = test: MTT growth inhibition assay, BaF3 FLT3-ITD cells; format: cell-based; conditions: no IL-3, 48 h, read-out: Proliferation IC50
Experimental: (§1) Figure 1 Growth of AL mutants in the presence of FLT3 TKI The BaF3 AL mutants were grown in the absence of IL-3 and analyzed by treatment in increasing concentrations of FLT3 TKI for 48 hours, after which growth inhibition was assessed using the MTT assay. Means are representative of at least three independent experiments.
(§2) The cells were grown in the absence of IL3 and analyzed by treatment in increasing concentrations of FLT3 TKI for 48 hours, after which growth inhibition was assessed using the MTT assay. Each experiment was performed at least three times and representative results are shown.
(§3) Based on Trypan Blue exclusion, 2 × 10^4 viable cells were seeded in quadruplicate in a 96-well microtiter plate in the presence or absence of inhibitor for 48 h. The effect of drug activity on cell viability was measured using the 3-(4,5-Dimethylthiazol-2-yl)-2,5-diphenyltetrazolium bromide (MTT) assay according to the manufacturer's instructions (Roche Applied Science, Indianapolis, IN, USA). Following treatment, cells were incubated for 4 h in MTT followed by dissolution in solubilization buffer overnight. Absorbance was measured at 570 nm on a Bio-Rad plate reader (Hercules, CA, USA). […] Results shown are presented as means and are representative of at least three independent experiments.

[1] = tested on: BaF3 FLT3 I836T mutant cells; test: MTT growth inhibition assay, BaF3 FLT3 I836T cells; format: cell-based; conditions: no IL-3, 48 h, read-out: Proliferation IC50
Experimental: as §1, §2, §3

[2] = tested on: BaF3 FLT3 I836S mutant cells; test: MTT growth inhibition assay, BaF3 FLT3 I836S cells; format: cell-based; conditions: BaF3 FLT3 I836S, no IL-3, 48 h, MTT, read-out: Proliferation IC50
Experimental: as §1, §2, §3

[3] = tested on: BaF3 FLT3 D835Y mutant cells; test: MTT growth inhibition assay, BaF3 FLT3 D835Y cells; format: cell-based; conditions: no IL-3, 48 h, read-out: Proliferation IC50
Experimental: as §1, §2, §3

[4] = tested on: BaF3 FLT3 D835G mutant cells; test: MTT growth inhibition assay, BaF3 FLT3 D835G cells; format: cell-based; conditions: no IL-3, 48 h, read-out: Proliferation IC50
Experimental: as §1, §2, §3

[5] = tested on: BaF3 FLT3 840G+S mutant cells; test: MTT growth inhibition assay, BaF3 FLT3 840G+S cells; format: cell-based; conditions: no IL-3, 48 h, read-out: Proliferation IC50
Experimental: as §1, §2, §3

[6] = tested on: BaF3 FLT3 D835A mutant cells; test: MTT growth inhibition assay, BaF3 FLT3 D835A cells; format: cell-based; conditions: BaF3 FLT3 D835A, no IL-3, 48 h, MTT, read-out: Proliferation IC50
Experimental: as §1, §2, §3

[7] = tested on: BaF3 FLT3 I836L+D mutant cells; test: MTT growth inhibition assay, BaF3 FLT3 I836L+D cells; format: cell-based; conditions: no IL-3, 48 h, read-out: Proliferation IC50
Experimental: as §1, §2, §3

[8] = tested on: BaF3 FLT3 D835L+K mutant cells; test: MTT growth inhibition assay, BaF3 FLT3 D835L+K cells; format: cell-based; conditions: no IL-3, 48 h, read-out: Proliferation IC50
Experimental: as §1, §2, §3

[9] = tested on: BaF3 FLT3 D593D mutant cells; test: MTT growth inhibition assay, BaF3 FLT3 D593D cells; format: cell-based; conditions: no IL-3, 48 h, read-out: Proliferation IC50
Experimental: as §1, §2, §3

[10] = tested on: BaF3 FLT3 D835N mutant cells; test: MTT growth inhibition assay, BaF3 FLT3 D835N cells; format: cell-based; conditions: no IL-3, 48 h, read-out: Proliferation IC50
Experimental: as §1, §2, §3

FLT3/ITD = FLT3/ITD autophosphorylation and signaling pathways, Western blot; format: cell-based; conditions: FLT3/ITD cells, 1 h, concentration-dependent
Experimental: (§4) Activated FLT3 expression was measured by performing immunoprecipitation, SDS-PAGE and Western blotting as previously described. Specifically, 10^7 cells were washed in medium and treated with inhibitor for 1 h followed by stimulation with 25 ng/ml of FLT3 ligand for 15 minutes where indicated. Cells were washed twice with ice-cold PBS and lysed in 300 µl of NP-40 lysis buffer (150 mM NaCl, 20 mM TrisHCl (pH7.4), 10% glycerol, 1% NP-40, 10 mM EDTA, 100 mM NaF) with 2 mM Na3VO4 and protease inhibitors (Complete Tablets, Roche, Mannheim, Germany) at 4°C for 30 m. Cell lysate was harvested by centrifugation at 13,000 × g for 30 m at 4°C. FLT3 S-18 antibody was incubated with 500 µg lysate overnight at 4°C followed by immunoprecipitation with protein A-agarose beads for 2 h. Beads were washed once in Tris buffered saline with 1% Tween-20 (TBST) and twice in TBS. Samples were boiled in sodium dodecyl sulfate (SDS) sample buffer prior to separating in a 8% SDS-polyacrylamide gel (SDS-PAGE). Proteins were transferred to a polyvinyl diflouride (PVDF) membrane (Millipore, Bedford, MA, USA) and detected by 4G10 phosphotyrosine antibody and anti-FLT3 S-18 antibody. FLT3 was visualized using the Odyssey Infra Red Imaging System from Li-Cor (Lincoln, NE, USA) using AlexaFluor 680 goat anti-mouse and AlexaFluor 800 goat anti-rabbit antibodies. Phosphorylation of the FLT3 downstream signaling mediators, STAT5, AKT and MAP kinase was investigated by loading 50 µg of whole cell lysate and probing with the indicated antibodies. The membrane was washed and incubated in goat anti-rabbit secondary antibody conjugated to horseradish peroxidase followed by enhanced chemiluminescence (ECL). The membrane was subsequently stripped in 200 mM glycine buffer, pH 2.5 with 0.1% Tween-20 and reprobed for STAT5, AKT and MAP kinase expression using the respective antibodies.

FLT3 D835Y = molecular target: T1, FLT3 D835Y (Homo sapiens, UniProt P36888, D835Y); test: FLT3 autophosphorylation, immunoprecipitation/Western blot, D835Y; format: cell-based; conditions: FLT3 D835Y cells, highest concentrations tested, 1 h
T1 construct: expressed in transfected cells; host or cells: BaF3
T1 sequence (P36888 27-993 D835Y): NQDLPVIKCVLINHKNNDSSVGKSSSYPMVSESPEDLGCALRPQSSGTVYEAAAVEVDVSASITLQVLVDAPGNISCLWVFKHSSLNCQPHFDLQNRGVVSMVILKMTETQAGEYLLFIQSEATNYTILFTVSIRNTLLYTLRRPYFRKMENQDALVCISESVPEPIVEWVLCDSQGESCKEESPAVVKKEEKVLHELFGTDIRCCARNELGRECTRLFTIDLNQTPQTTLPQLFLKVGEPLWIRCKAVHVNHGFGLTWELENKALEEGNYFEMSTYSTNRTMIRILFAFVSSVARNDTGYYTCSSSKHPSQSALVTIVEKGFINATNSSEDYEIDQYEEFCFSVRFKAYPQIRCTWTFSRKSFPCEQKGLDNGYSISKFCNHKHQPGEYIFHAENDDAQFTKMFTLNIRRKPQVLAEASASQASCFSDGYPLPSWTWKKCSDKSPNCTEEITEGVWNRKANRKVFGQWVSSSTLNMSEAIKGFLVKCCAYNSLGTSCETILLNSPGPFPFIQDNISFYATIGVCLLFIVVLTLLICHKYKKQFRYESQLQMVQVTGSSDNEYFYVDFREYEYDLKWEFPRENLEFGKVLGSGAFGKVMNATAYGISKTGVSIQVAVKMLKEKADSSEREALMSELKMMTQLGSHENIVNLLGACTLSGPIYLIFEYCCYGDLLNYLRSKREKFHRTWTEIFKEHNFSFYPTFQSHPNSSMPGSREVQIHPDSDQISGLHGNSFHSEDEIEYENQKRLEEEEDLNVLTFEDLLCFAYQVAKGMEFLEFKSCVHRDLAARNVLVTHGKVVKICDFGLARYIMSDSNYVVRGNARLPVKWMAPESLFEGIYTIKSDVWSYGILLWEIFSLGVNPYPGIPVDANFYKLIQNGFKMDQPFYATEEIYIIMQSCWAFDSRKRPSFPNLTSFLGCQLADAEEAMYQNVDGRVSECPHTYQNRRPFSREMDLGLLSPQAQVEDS
Experimental: as §4, with “Phosphorylation of the FLT3 downstream signaling mediators, STAT5, AKT and MAP kinase was investigated by loading 50 µg of whole cell lysate and probing with the indicated antibodies. The membrane was washed and incubated in goat anti-rabbit secondary antibody conjugated to horseradish peroxidase followed by enhanced chemiluminescence (ECL). The membrane was subsequently stripped in 200 mM glycine buffer, pH 2.5 with 0.1% Tween-20 and reprobed for STAT5, AKT and MAP kinase expression using the respective antibodies.” left out

BaF3 FLT3 D835Y cells = test: Engraftment of BaF3 D835Y luciferase cells in BALB/c mice, bioluminescence imaging; format: in vivo; conditions: 10 mg/kg once daily oral gavage, day 5 to day 9
Experimental: On day 5 following transplantation, the level of engraftment was assessed by imaging mice for bioluminescence on an IVIS Spectrum imager. […] This experiment was repeated three times.
Cells were sorted for GFP and CD135 expression on a FACS AriaII cytometer using FACSDiva software. For engraftment, 2 ×10^6 cells were injected via tail vein into BALB/c mice (Jackson Laboratories, Bar Harbor, ME, USA) (day 0). […] [36, 37] […] Mice were imaged by intraperitoneal injection of luciferin (3 mg) and visualizing on an IVIS Spectrum imager (Caliper LifeSciences, Hopkinton, MA, USA) using Living Image software for analysis on day 5 following inoculation to monitor engraftment and on day 9 to assess drug effect. All animal procedures were conducted in accordance with the policy of the Johns Hopkins University School of Medicine Animal Care and Use Committee.

SMILES	pIC50 (BaF3/ITD cells)	pIC50 [1]	pIC50 [2]	pIC50 [3]	pIC50 [4]	pIC50 [5]	pIC50 [6]	pIC50 [7]	pIC50 [8]	pIC50 [9]	pIC50 [10]	pIC50 (BaF3/ITD cells; Mus musculus)	pIC50 ([2]; Mus musculus)	pIC50 ([3]; Mus musculus)	pIC50 ([4]; Mus musculus)	pIC50 ([5]; Mus musculus)	pIC50 ([6]; Mus musculus)	pIC50 ([7]; Mus musculus)	pIC50 ([8]; Mus musculus)	pIC50 ([9]; Mus musculus)	other results
COc1cc(Nc2ncc(F)c(Nc3ccc4c(n3)NC(=O)C(C)(C)O4)n2)cc(OC)c1OC [R406]	6.78	6.82	< 6.70	< 6.70	6.85	< 6.70	< 6.70	< 6.70	< 6.70	< 6.70	6.82	–	–	–	–	–	–	–	–	–	–
CNC(=O)c1cc(Oc2ccc(NC(=O)Nc3ccc(Cl)c(C(F)(F)F)c3)cc2)ccn1 [Sorafenib]	–	–	–	–	–	–	–	–	–	–	–	7.73	7.99	< 5.70	7.46	8.30	< 6.70	< 6.70	< 6.70	< 6.70	pIC50 ([1]; Mus musculus): 7.32; Inhibition of FLT3 autophosphorylation and phosphorylation of STAT5, AKT and Map kinase (FLT3/ITD): inhibited FLT3 autophosphorylation; Inhibition of FLT3 autophosphorylation (FLT3 D835Y): markedly reduced or absent inhibition; Leukemic burden (bioluminescence) on day 9 (BaF3 FLT3 D835Y cells): clear progression of leukemia; pIC50 ([10]; Mus musculus): 7.50
CCN(CC)CCNC(=O)c1c(C)[nH]c(/C=C2\C(=O)Nc3ccc(F)cc32)c1C [Sunitinib]	–	–	–	–	–	–	–	–	–	–	–	8.27	< 6.70	< 7.00	7.32	8.40	< 6.70	< 6.70	< 6.70	< 6.70	pIC50 ([10]; Mus musculus): 7.33
CNC(=O)[C@@]1(N)C[C@H]2O[C@]1(C)n1c3ccccc3c3c4c(c5c6ccccc6n2c5c31)C(=O)NC4 [TTT-3002]	> 9.00	8.01	8.05	8.39	> 9.00	> 9.00	8.89	7.93	8.17	8.55	> 9.00	–	–	–	–	–	–	–	–	–	–
